Type in all cases: cell-based
One experiment concerns Parental (Ba/F3). In words: Ba/F3 cell proliferation inhibition. The following applies: BaF3; 72 hours, Cell Counting Kit-8. The procedure, abridged: (§1)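 Parental and T315I-Bcr-Abl Ba/F3 cells, 1×10^4 per well, exposed 72 h at 37 °C to nine 3-fold dilutions, final 0 to 10 μM. Viability by CCK-8 after 2 h, absorbance 450 nm; GI50 fitted from percent of vehicle-treated cells.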

The test system of a further experiment is T315I-Bcr-Abl (Ba/F3). In words: Ba/F3 cell proliferation inhibition. As to conditions: BaF3; 72 hours, Cell Counting Kit-8. Put shortly: as §1
The test system of another experiment is KOPM28 cells. In words: human CML cell proliferation inhibition. As to conditions: 72 hours, Cell Counting Kit-8. The procedure, abridged: (§2)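 Read-out: CCK-8, A450 after 2 h, expressed as % of vehicle-treated cells; GI50 fitted from 9-point curves. Compound exposure 72 h at 37 °C, final 0–10 μM, 5-fold dilutions. Bcr-Abl lines TCCS/KOPM28; T315I-Bcr-Abl lines T315I-TCCS/T315I-KOPM28.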
In general terms: Tetrazolium assays rely on reduction of a dye to a coloured formazan, in cell work by metabolically active cells.

In a further experiment the test system is T315I-KOPM28 cells. As to the kind of experiment: human CML cell proliferation inhibition. The following applies: 72 hours, Cell Counting Kit-8. Put shortly: as §2
The subject of a further experiment is T315I-TCCS cells. In words: human CML cell proliferation inhibition. The following applies: 72 hours, Cell Counting Kit-8. Put shortly:
as §2

The subject of another experiment is TCCS cells. As to the kind of experiment: human CML cell proliferation inhibition. The following applies: 72 hours, Cell Counting Kit-8. The procedure, abridged:
as §2

From patent US12673945B2, “3-((8-((1H-pyrazol-4-yl)amino)imidazo[1,2-a]pyridin-3-yl)ethinyl)-n-phenylbenzamide derivative, method for preparing same, and pharmaceutical composition containing same as active ingredient for prevention or treatment of cancer” (DAEGU-GYEONGBUK MEDICAL INNOVATION FOUNDATION, priority 2020, dated 2026) come the findings set out here.

One may read the GI50 as the concentration at which growth is held to half of that of the control.

A value given as a limit tells only on which side of the number the result lay.

With `Cc1cc(Cl)c(C(=O)Nc2cc(Oc3ccncc3)cc(C(F)(F)F)c2)cc1C#Cc1cnc2c(Nc3cnn(C)c3)cccn12` [Example 15, 2-chloro-4-methyl-5-((8-((1-methyl-1H-pyrazol-4-yl)amino)imidazo[1,2-a]pyridin-3-yl)ethynyl)-N-(3-(pyridin-4-yloxy)-5-(trifluoromethyl)phenyl)benzamide], the GI50 with Parental (Ba/F3) is greater than 5000 nM; in the experiment with T315I-Bcr-Abl (Ba/F3) it was less than 50 nM; in the experiment on KOPM28 cells it was less than 10 nM; with T315I-KOPM28 cells, less than 10 nM; in the experiment with T315I-TCCS cells, less than 10 nM; with TCCS cells, less than 10 nM.
`Cc1cc(F)c(C(=O)Nc2cc(CN3CCN(C)C(=O)C3)cc(C(C)(C)C#N)c2)cc1C#Cc1cnc2c(Nc3cnn(C)c3)cccn12` [Example 35, N-(3-(2-cyanopropan-2-yl)-5-((4-methyl-3-oxopiperazin-1-yl)methyl)phenyl)-2-fluoro-4-methyl-5-((8-((1-methyl-1H-pyrazol-4-yl)amino)imidazo[1,2-a]pyridin-3-yl)ethynyl)benzamide]: the concentration for 50% growth inhibition (GI50) in the experiment with Parental (Ba/F3) is 500 to 5000 nM; with T315I-Bcr-Abl (Ba/F3), 50 to 500 nM; in the experiment with KOPM28 cells it was less than 10 nM; in the experiment on T315I-KOPM28 cells it was greater than 100 nM; in the experiment on T315I-TCCS cells, greater than 100 nM; with TCCS cells it was less than 10 nM.
`Cc1c(F)cc(C(=O)Nc2cc(CN3CCN(CCO)CC3)cc(C(C)(C)C#N)c2)cc1C#Cc1cnc2c(Nc3cnn(C)c3)cccn12` [Example 11, N-(3-(2-cyanopropan-2-yl)-5-((4-(2-hydroxyethyl)piperazin-1-yl)methyl)phenyl)-3-fluoro-4-methyl-5-((8-((1-methyl-1H-pyrazol-4-yl)amino)imidazo[1,2-a]pyridin-3-yl)ethynyl)benzamide]: the 50% growth inhibitory concentration (GI50) in the experiment with Parental (Ba/F3) is greater than 5000 nM; in the experiment on T315I-Bcr-Abl (Ba/F3), less than 50 nM; in the experiment with KOPM28 cells it was less than 10 nM; in the experiment with T315I-KOPM28 cells, 100 nM; with T315I-TCCS cells it was less than 10 nM; with TCCS cells, less than 10 nM.
For `Cc1cc(F)c(C(=O)Nc2cc(N3CCN(C)C(=O)C3)cc(C(C)(C)C#N)c2)cc1C#Cc1cnc2c(Nc3cnn(C)c3)cccn12` [Example 24, N-(3-(2-cyanopropan-2-yl)-5-(4-methyl-3-oxopiperazin-1-yl)phenyl)-2-fluoro-4-methyl-5-((8-((1-methyl-1H-pyrazol-4-yl)amino)imidazo[1,2-a]pyridin-3-yl)ethynyl)benzamide], the concentration for 50% growth inhibition (GI50) was 500 to 5000 nM with Parental (Ba/F3); 50 to 500 nM with T315I-Bcr-Abl (Ba/F3); less than 10 nM with KOPM28 cells; 100 nM with T315I-KOPM28 cells; 100 nM with T315I-TCCS cells; less than 10 nM in the experiment on TCCS cells.
Consider `Cc1cc(F)c(C(=O)Nc2cc(CN3CCN(CC(F)(F)F)CC3)cc(C(C)(C)C#N)c2)cc1C#Cc1cnc2c(Nc3cnn(C)c3)cccn12` [Example 32, N-(3-(2-cyanopropan-2-yl)-5-((4-(2,2,2-trifluoroethyl)piperazin-1-yl)methyl)phenyl)-2-fluoro-4-methyl-5-((8-((1-methyl-1H-pyrazol-4-yl)amino)imidazo[1,2-a]pyridin-3-yl)ethynyl)benzamide], for which the GI50 in the experiment on Parental (Ba/F3) was greater than 5000 nM; in the experiment on T315I-Bcr-Abl (Ba/F3), 50 to 500 nM; in the experiment on KOPM28 cells it was less than 10 nM; with T315I-KOPM28 cells it was greater than 100 nM; with T315I-TCCS cells, greater than 100 nM; in the experiment with TCCS cells, less than 10 nM.
Turning to `Cc1cc(F)c(C(=O)Nc2cc(Cn3cncn3)cc(C(C)(C)C#N)c2)cc1C#Cc1cnc2c(Nc3cn[nH]c3)cccn12` [Example 89, N-(3-((1H-1,2,4-triazol-1-yl)methyl)-5-(2-cyanopropan-2-yl)phenyl)-5-((8-((1H-pyrazol-4-yl)amino)imidazo[1,2-a]pyridin-3-yl)ethynyl)-2-fluoro-4-methylbenzamide], the 50% growth inhibitory concentration (GI50) with Parental (Ba/F3) was greater than 5000 nM; in the experiment with T315I-Bcr-Abl (Ba/F3) it was less than 50 nM; in the experiment with KOPM28 cells, less than 10 nM; in the experiment with T315I-KOPM28 cells it was 100 nM; with T315I-TCCS cells it was 100 nM; with TCCS cells, less than 10 nM.
Regarding `Cc1cc(F)c(C(=O)Nc2cc(CN3CCN(CCO)CC3)cc(C(F)(F)F)c2)cc1C#Cc1cnc2c(Nc3cn[nH]c3)cccn12` [Example 106, 5-((8-((1H-pyrazol-4-yl)amino)imidazo[1,2-a]pyridin-3-yl)ethynyl)-2-fluoro-N-(3-((4-(2-hydroxyethyl)piperazin-1-yl)methyl)-5-(trifluoromethyl)phenyl)-4-methylbenzamide], the 50% growth inhibitory concentration (GI50) in the experiment on Parental (Ba/F3) is greater than 5000 nM; with T315I-Bcr-Abl (Ba/F3), 50 to 500 nM; in the experiment on KOPM28 cells, less than 10 nM; in the experiment with T315I-KOPM28 cells, greater than 100 nM; in the experiment on T315I-TCCS cells, 100 nM; with TCCS cells, less than 10 nM.
Take `Cc1cc(F)c(C(=O)Nc2cc(OCCN(C)C)cc(C(F)(F)F)c2)cc1C#Cc1cnc2c(Nc3cn[nH]c3)cccn12` [Example 102, 5-((8-((1H-pyrazol-4-yl)amino)imidazo[1,2-a]pyridin-3-yl)ethynyl)-N-(3-(2-(dimethylamino)ethoxy)-5-(trifluoromethyl)phenyl)-2-fluoro-4-methylbenzamide]: the GI50 in the experiment with Parental (Ba/F3) is 500 to 5000 nM; in the experiment on T315I-Bcr-Abl (Ba/F3), 50 to 500 nM; in the experiment on KOPM28 cells it was less than 10 nM; with T315I-KOPM28 cells, greater than 100 nM; in the experiment on T315I-TCCS cells it was 100 nM; in the experiment with TCCS cells, less than 10 nM.
Turning to `Cc1cc(F)c(C(=O)Nc2ccc(Cn3cncn3)c(C(F)(F)F)c2)cc1C#Cc1cnc2c(Nc3cn[nH]c3)cccn12` [Example 114, N-(4-((1H-1,2,4-triazol-1-yl)methyl)-3-(trifluoromethyl)phenyl)-5-((8-((1H-pyrazol-4-yl)amino)imidazo[1,2-a]pyridin-3-yl)ethynyl)-2-fluoro-4-methylbenzamide], the GI50 in the experiment with Parental (Ba/F3) was greater than 5000 nM; in the experiment on T315I-Bcr-Abl (Ba/F3), 50 to 500 nM; with KOPM28 cells, less than 10 nM; in the experiment on T315I-KOPM28 cells, greater than 100 nM; in the experiment with T315I-TCCS cells it was greater than 100 nM; in the experiment on TCCS cells, less than 10 nM.
With `Cc1cc(F)c(C(=O)Nc2ccc(CN3CCN(S(C)(=O)=O)CC3)c(C(C)(C)C#N)c2)cc1C#Cc1cnc2c(Nc3cn[nH]c3)cccn12` [Example 94, 5-((8-((1H-pyrazol-4-yl)amino)imidazo[1,2-a]pyridin-3-yl)ethynyl)-N-(3-(2-cyanopropan-2-yl)-4-((4-(methylsulfonyl)piperazin-1-yl)methyl)phenyl)-2-fluoro-4-methylbenzamide], the concentration for 50% growth inhibition (GI50) is greater than 5000 nM in the experiment with Parental (Ba/F3); 500 to 5000 nM with T315I-Bcr-Abl (Ba/F3); less than 10 nM with KOPM28 cells; greater than 100 nM in the experiment on T315I-KOPM28 cells; greater than 100 nM with T315I-TCCS cells; less than 10 nM in the experiment with TCCS cells.
As to `Cc1cc(F)c(C(=O)Nc2cc(-c3cnn(C)c3)cc(C(F)(F)F)c2)cc1C#Cc1cnc2c(Nc3cnn(C)c3)cccn12` [Example 54, 2-fluoro-4-methyl-N-(3-(1-methyl-1H-pyrazol-4-yl)-5-(trifluoromethyl)phenyl)-5-((8-((1-methyl-1H-pyrazol-4-yl)amino)imidazo[1,2-a]pyridin-3-yl)ethynyl)benzamide], the GI50 with Parental (Ba/F3) is greater than 5000 nM; in the experiment with T315I-Bcr-Abl (Ba/F3), 50 to 500 nM; in the experiment with KOPM28 cells, 100 nM; with T315I-KOPM28 cells, greater than 100 nM; in the experiment on T315I-TCCS cells it was 100 nM; in the experiment with TCCS cells, less than 10 nM.
Take `Cc1cc(F)c(C(=O)Nc2cc(CN3CCOCC3)cc(C(F)(F)F)c2)cc1C#Cc1cnc2c(Nc3cnn(C)c3)cccn12` [Example 66, 2-fluoro-4-methyl-5-((8-((1-methyl-1H-pyrazol-4-yl)amino)imidazo[1,2-a]pyridin-3-yl)ethynyl)-N-(3-(morpholinomethyl)-5-(trifluoromethyl)phenyl)benzamide]: the GI50 is greater than 5000 nM in the experiment on Parental (Ba/F3); 50 to 500 nM in the experiment on T315I-Bcr-Abl (Ba/F3); less than 10 nM with KOPM28 cells; greater than 100 nM in the experiment with T315I-KOPM28 cells; greater than 100 nM in the experiment with T315I-TCCS cells; less than 10 nM with TCCS cells.
With `Cc1cc(F)c(C(=O)Nc2cc(N(C)CCN(C)C)cc(C(C)(C)C#N)c2)cc1C#Cc1cnc2c(Nc3cn[nH]c3)cccn12` [Example 81, 5-((8-((1H-pyrazol-4-yl)amino)imidazo[1,2-a]pyridin-3-yl)ethynyl)-N-(3-(2-cyanopropan-2-yl)-5-((2-(dimethylamino)ethyl)(methyl)amino)phenyl)-2-fluoro-4-methylbenzamide], the GI50 was 500 to 5000 nM with Parental (Ba/F3); 50 to 500 nM in the experiment on T315I-Bcr-Abl (Ba/F3); less than 10 nM in the experiment on KOPM28 cells; greater than 100 nM with T315I-KOPM28 cells; 100 nM with T315I-TCCS cells; less than 10 nM with TCCS cells.
Take `Cc1cc(F)c(C(=O)Nc2cc(N(C)CCCN(C)C)cc(C(C)(C)C#N)c2)cc1C#Cc1cnc2c(Nc3cnn(C)c3)cccn12` [Example 23, N-(3-(2-cyanopropan-2-yl)-5-((3-(dimethylamino)propyl)(methyl)amino)phenyl)-2-fluoro-4-methyl-5-((8-((1-methyl-1H-pyrazol-4-yl)amino)imidazo[1,2-a]pyridin-3-yl)ethynyl)benzamide]: the GI50 in the experiment on Parental (Ba/F3) is 500 to 5000 nM; in the experiment on T315I-Bcr-Abl (Ba/F3) it was 50 to 500 nM; in the experiment on KOPM28 cells, less than 10 nM; in the experiment with T315I-KOPM28 cells, greater than 100 nM; in the experiment with T315I-TCCS cells, greater than 100 nM; in the experiment with TCCS cells, less than 10 nM.
Regarding `Cc1cc(F)c(C(=O)Nc2cc(-c3cnn(C)c3)cc(C(F)(F)F)c2)cc1C#Cc1cnc2c(Nc3cn[nH]c3)cccn12` [Example 96, 5-((8-((1H-pyrazol-4-yl)amino)imidazo[1,2-a]pyridin-3-yl)ethynyl)-2-fluoro-4-methyl-N-(3-(1-methyl-1H-pyrazol-4-yl)-5-(trifluoromethyl)phenyl)benzamide], the GI50 was greater than 5000 nM in the experiment on Parental (Ba/F3); 50 to 500 nM in the experiment on T315I-Bcr-Abl (Ba/F3); less than 10 nM in the experiment with KOPM28 cells; greater than 100 nM with T315I-KOPM28 cells; greater than 100 nM in the experiment with T315I-TCCS cells; 100 nM in the experiment with TCCS cells.
